Where a name gives a salt, the structure may show the parent alone.
Experiments:
Colo205 tumor cells = test: Cell growth inhibition assay (CellTiter-Glo), Colo205; format: cell-based, Human; conditions: 3 days incubation
Method in brief: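 Cells plated at 500 cells/well in their growth media, dosed next day with nine-step 1:3 compound dilutions (final DMSO 0.2%), then incubated 3 days at 37° C, 5% CO2. Total ATP read by CellTiter-Glo luminescence as a surrogate for cell number; IC50 interpolated from 4-parameter fit versus DMSO controls.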

ErbB2 = target: T1, ErbB2 (Homo sapiens, UniProt P04626); test: ErbB-2 substrate phosphorylation assay (HTRF); format: biochemical
T1 construct: made in house; host or cells: baculovirus expression system
T1 sequence (P04626 23-1255): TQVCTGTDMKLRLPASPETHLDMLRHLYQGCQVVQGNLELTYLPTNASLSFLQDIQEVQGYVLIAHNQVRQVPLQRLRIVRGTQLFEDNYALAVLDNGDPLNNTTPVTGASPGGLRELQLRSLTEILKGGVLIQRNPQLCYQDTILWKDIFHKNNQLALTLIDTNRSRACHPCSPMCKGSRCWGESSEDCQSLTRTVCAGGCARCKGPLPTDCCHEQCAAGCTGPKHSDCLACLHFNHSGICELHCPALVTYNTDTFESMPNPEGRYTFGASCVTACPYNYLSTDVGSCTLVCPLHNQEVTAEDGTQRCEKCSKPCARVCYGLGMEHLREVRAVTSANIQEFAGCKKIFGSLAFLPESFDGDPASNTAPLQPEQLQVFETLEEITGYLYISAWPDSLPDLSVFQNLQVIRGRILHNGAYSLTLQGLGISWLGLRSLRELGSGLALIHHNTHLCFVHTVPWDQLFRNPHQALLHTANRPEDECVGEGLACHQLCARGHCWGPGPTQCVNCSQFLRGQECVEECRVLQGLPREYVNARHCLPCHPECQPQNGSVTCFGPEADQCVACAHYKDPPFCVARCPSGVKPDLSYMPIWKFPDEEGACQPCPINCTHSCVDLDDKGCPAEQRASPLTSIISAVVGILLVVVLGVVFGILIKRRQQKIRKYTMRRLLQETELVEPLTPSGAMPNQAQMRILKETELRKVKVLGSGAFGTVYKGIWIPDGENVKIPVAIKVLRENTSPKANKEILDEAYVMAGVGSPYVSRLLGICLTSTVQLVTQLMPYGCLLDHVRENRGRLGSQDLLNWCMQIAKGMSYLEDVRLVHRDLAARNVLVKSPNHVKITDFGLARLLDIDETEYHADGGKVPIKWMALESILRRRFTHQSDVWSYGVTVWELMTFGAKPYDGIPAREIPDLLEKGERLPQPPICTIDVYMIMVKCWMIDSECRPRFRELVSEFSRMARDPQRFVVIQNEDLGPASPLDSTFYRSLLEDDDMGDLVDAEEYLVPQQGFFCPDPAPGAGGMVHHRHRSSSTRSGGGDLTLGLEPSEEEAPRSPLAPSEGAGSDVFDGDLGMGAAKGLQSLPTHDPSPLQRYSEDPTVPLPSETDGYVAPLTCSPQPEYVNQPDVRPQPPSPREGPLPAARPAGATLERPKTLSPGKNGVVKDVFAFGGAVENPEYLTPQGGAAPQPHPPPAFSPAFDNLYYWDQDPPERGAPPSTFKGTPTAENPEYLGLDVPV
Method in brief: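 Baculovirus-expressed EGFR (0.8 nM) or ErbB2 (10 nM) in enzyme mix, preincubated 1 h at 20 °C with compound (0.00027–47.6 μM final), then 90 min at 20 °C with substrate mix of 20 μM ATP, 0.8 uM biotinylated Peptide C, MnCl2, MOPS pH 7.5. Phosphotyrosine by HTRF; pIC50 reported.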

HT-29 tumor cells = test: Cell growth inhibition assay (CellTiter-Glo), HT-29; format: cell-based, Human; conditions: Homo sapiens
Experimental: Human breast tumor cells (BT474) were cultured in RPMI (Mediatech […]), containing 10% FBS (JRH Biosciences 12176) and 1% penicillin-streptomycin (Invitrogen 15140). Human head and neck tumor cells (HN5) were cultured in high glucose DMEM (Mediatech 50-013-PB) containing 10% FBS and 1% penicillin-streptomycin. Human colon tumor cells (Colo205) were cultured in RPMI (Mediatech 50-020-PB) containing 10% FBS and 1% penicillin-streptomycin. Human melanoma cancer cells (SK-MEL-28) were cultured in EMEM with nonessential amino acids (Mediatech 50-011-PB) containing 10% FBS, 1% sodium pyruvate (JT Baker 3354-04), and 1% penicillin-streptomycin. Human melanoma cancer cells (A375P F11s) were cultured in RPMI (Mediatech 50-020-PB) containing 10% FBS, 1% sodium pyruvate, and 1% penicillin-streptomycin. Human colon cancer cells (HT-29) were cultured in high glucose DMEM (Mediatech 50-013-PB) containing 10% FBS and 1% penicillin-streptomycin. Human melanoma cancer cells (SK-MEL-3) were cultured in McCoy's 5A (50-025-PB) containing 15% FBS, and 1% penicillin-streptomycin. All cell lines were maintained at 37° C. in a humidified 5% CO2, 95% air incubator. Cells were harvested using trypsin/EDTA (Invitrogen 25200), counted using a haemocytometer, and plated. For 96-well assays (using white full-area NUNC plates cat. #136102), cells were plated in 105 μL at the following densities (cells/well): HNS, 500; Colo 205, 500; SK-MEL-28, 500; A375P F11s, 500; HT-29, 500; SK-MEL-3, 500; and BT474, 3000. For 384-well assays (white full-area NUNC plates, cat. #781080), cells were plated in 48 μL at the following densities (cells/well): HNS, 500; Colo205, 500; SK-MEL-28, 500; A375P F11s, 500; HT-29, 500; SK-MEL-3, 500; and BT474, 2000.
The next day, compounds were diluted as follow: For 96-well assays, 13.5 μL of compound in DMSO were diluted using nine (9) serial 1:3 dilutions of 4.5 μL in 9 of DMSO. Medium (270 μL/well of RPMI with 10% FBS and 1% penicillin-streptomycin) was added to the plates. Aliquots (7 μL) were added to cells in the final assay giving a final DMSO concentration of 0.2%. For 384-well assays, 15 μL of compound in DMSO were diluted using nine (9) serial 1:3 dilutions of 5 μL in 10 μL of DMSO, followed by a further dilution of 5 μL of compound with 95 μL of medium, of which 2 μL were added to cells in the final assay giving a final DMSO concentration of 0.2%. Cells were incubated at 37° C., 5% CO2 for 3 days.
Total ATP was measured (as a surrogate estimate of cell number) using CellTiter-Glo® reagent (Promega G7571). Briefly, plates were removed from the incubator and allowed to equilibrate to room temperature for 30 minutes. CellTiter-Glo® (25 μL or 55 μL for 384-well or 96-well assays, respectively) reagent was added to each well and plates were shaken on an orbital plate shaker for 2 minutes. Plates were incubated without shaking for a further 30 minutes and read on an LJL Analyst GT reader in luminometer mode with an integration time of 0.5 seconds per well. Percent inhibition of cell growth was calculated relative to DMSO vehicle-treated control wells. Concentration of compound required to give 50% inhibition of vehicle-treated control cell growth (IC50) was interpolated using a 4-parameter fit for determining IC50 using the following equation: Y=A +((B−A)/(1+((C/X)̂D))) where […].

Row | SMILES | IC50 (Colo205 tumor cells; Homo sapiens, COLO 205, 72 h) [nM] | IC50 (ErbB2) [nM] | IC50 (HT-29 tumor cells) [nM] | IC50 (Colo205 tumor cells) [nM]
1 | CCNc1nc(-c2cccc(NS(=O)(=O)c3c(F)cccc3F)c2)c(-c2ccnc(Nc3ccc(N4CCOCC4)nc3)n2)s1 [Example 152] | < 100 | 100 to 1000 | < 100 | –
2 | CC(=O)N1CCN(c2ccc(Nc3nccc(-c4sc(C(C)C)nc4-c4cccc(NS(=O)(=O)c5cccc(C(F)(F)F)c5)c4)n3)cn2)CC1 [Example 70] | 100 to 1000 | > 1000 | > 1000 | –
3 | Cc1nc(Cl)sc1S(=O)(=O)Nc1cccc(-c2nc(C(C)C)sc2-c2ccnc(Nc3ccc(N4CCOCC4)nc3)n2)c1 [Example 42] | < 100 | > 1000 | 100 to 1000 | –
4 | CC(C)(C)c1nc(-c2ccc(F)c(NS(=O)(=O)c3c(F)cccc3F)c2)c(-c2ccnc(Nc3ccc(N4CCOCC4)nc3)n2)s1 [Example 28, N-{5-[2-(1,1-Dimethylethyl)-5-(2-{[[6-(4-morpholinyl)-3-pyridinyl]amino}-4-pyrimidinyl)-1,3-thiazol-4-yl]-2-fluorophenyl]-2,6-difluorobenzenesulfonamide hydrochloride] | < 100 | 100 to 1000 | 100 to 1000 | –
5 | Nc1nc(-c2cccc(NS(=O)(=O)c3c(F)cccc3F)c2)c(-c2ccnc(Nc3ccc(N4CCOCC4)nc3)n2)s1 [Example 62] | < 100 | 100 to 1000 | 100 to 1000 | –
6 | O=S(=O)(Nc1cc(-c2nc(N3CCOCC3)sc2-c2ccnc(Nc3ccc4c(c3)OCCO4)n2)ccc1F)c1c(F)cccc1F [Example 127] | 100 to 1000 | 100 to 1000 | > 1000 | –
7 | CCNc1nc(-c2cccc(NS(=O)(=O)c3ccccc3)c2)c(-c2ccnc(Nc3ccc(OCCN4CCCC4)c(F)c3)n2)s1 [Example 65] | – | < 100 | 100 to 1000 | 100 to 1000
8 | CC(C)c1nc(-c2ccc(F)c(NS(=O)(=O)c3c(F)cccc3F)c2)c(-c2ccnc(Nc3ccnc(N4CCOCC4)c3)n2)s1 [Example 117] | < 100 | < 100 | 100 to 1000 | –
9 | CC(C)c1nc(-c2ccnc(NS(=O)(=O)c3c(F)cccc3F)c2)c(-c2ccnc(Nc3ccc(N4CCN(CCF)CC4)c(F)c3)n2)s1 [Example 100] | < 100 | > 1000 | 100 to 1000 | –
10 | CC(C)c1nc(-c2ccc(F)c(NS(=O)(=O)c3c(F)cccc3F)c2)c(-c2ccnc(Nc3ccc(N4CCOCC4)nc3)n2)s1 [Example 23, 2,6-Difluoro-N-{2-fluoro-5-[2-(1-methylethyl)-5-(2-{[6-(4-morpholinyl)-3-pyridinyl]amino}-4-pyrimidinyl)-1,3-thiazol-4-yl]phenyl}benzenesulfonamide] | < 100 | 100 to 1000 | < 100 | –
11 | O=S(=O)(Nc1cccc(-c2nc(N3CCOCC3)sc2-c2ccnc(Nc3ccc(N4CCOCC4)nc3)n2)c1Cl)c1c(F)cccc1F [Example 146] | < 100 | > 1000 | < 100 | –
12 | CC(=O)N1CCN(c2ccc(Nc3nccc(-c4sc(C(C)C)nc4-c4cccc(NS(=O)(=O)c5ccc(F)cc5)c4)n3)cn2)CC1 [Example 10, N-{3-[5-(2-{[6-(4-Acetyl-1-piperazinyl)-3-pyridinyl]amino}-4-pyrimidinyl)-2-(1-methylethyl)-1,3-thiazol-4-yl]phenyl}-4-fluorobenzenesulfonamide] | < 100 | > 1000 | 100 to 1000 | –
13 | CN(C)c1nc(-c2ccc(F)c(NS(=O)(=O)c3c(F)cccc3F)c2)c(-c2ccnc(Nc3ccc(N4CCN(S(C)(=O)=O)CC4)nc3)n2)s1 [Example 112] | 100 to 1000 | 100 to 1000 | 100 to 1000 | –
14 | Cc1cc(Nc2nccc(-c3sc(C(C)(C)C)nc3-c3cccc(NS(=O)(=O)c4c(F)cccc4F)c3F)n2)ccn1 [Example 159] | < 100 | 100 to 1000 | < 100 | –
15 | CC(C)c1nc(-c2cncc(NS(=O)(=O)c3c(F)cccc3F)c2)c(-c2ccnc(Nc3ccc(N4CCOCC4)nc3)n2)s1 [Example 47] | < 100 | – | 100 to 1000 | –

Reference: patent US20110319392A1, “Thiazole Sulfonamide And Oxazole Sulfonamide Kinase Inhibitors” (priority 2009, published 2011)
